Laboratory results published in patent publication US12509439B2, “Anti-malarial agents” (UNIVERSITY OF KENTUCKY RESEARCH FOUNDATION, priority 2020, dated 2025).
pEC50, pIC50: −log10 of the molar value. Read-outs that look alike come from different tables or passages of the source.

What was measured:
[1] = system: P. falciparum transgenic reporter strain NF54-HGL; experiment: Standard membrane feeding assay (transmission blocking, oocysts in mosquito midgut); assay type: cell-based; details: Plasmodium falciparum, NF54, read-out: IC50, transmission of P. falciparum from infected blood into mosquitos (number of oocysts in the mosquito midgut)
Description: Standard Membrane Feeding Assays (SMFA) were performed using P. falciparum transgenic reporter strain NF54-HGL that expresses a firefly luciferase gene from an hsp70 promoter (Vos et al., 2015, Scientific Reports, 5). Stage V gametocytes were pre-incubated with test compound prior to mosquito feeding. Test compound is dissolved in DMSO to achieve a stock solution of 10 mM that was serially diluted in DMSO to achieve concentrations […] above the final test concentration. Subsequently, 10 μl of diluted compound in DMSO is then added to 990 μl pre-warmed RPMI 1640 medium supplemented with 367 μM hypoxanthine, 25 mM HEPES and 25 mM NaHCO3 (‘incomplete medium’). 40 μl of this intermediate dilution is added to 360 μl of parasite culture and incubated for 48 hrs at 37° C. in Eppendorf tubes, resulting in 0.1% final DMSO concentration. Hereafter, 300 μl of the gametocyte culture/compound mix is added to 180 μl of packed red blood cells and centrifuged for 20 seconds at 10,000×g. […] Mosquitoes are processed for luminescence measurements to determine relative oocyst intensities as described previously (Stone et al., 2014, Journal of Infectious Diseases, 5, 16). Data is analyzed by fitting a four-parameter logistic regression model using maximum likelihood to find the best fit as described previously (Dechering et al., 2017, Scientific Reports, 7, 1) as shown under FIG. 5.

[2] = Pharmacokinetic profile in dog (IV); details: in vivo; for clearance: read-out: Cl (dog); for half-life: read-out: t½ (dog) (converted)
[3] = target: T1, PfATP-4 (Plasmodium falciparum, UniProt A0A143ZZK9); experiment: Effect on cytosolic [Na+] in saponin-isolated Plasmodium falciparum (sodium flux assay, SBFI); assay type: cell-based; details: SBFI-loaded 3D7 parasites, compound at 1 μM
T1 construct: Saponin-isolated parasites at a density of 1.4-1.8×10^8 cells/mL; endogenous in cells
T1 sequence (A0A143ZZK9 whole entry): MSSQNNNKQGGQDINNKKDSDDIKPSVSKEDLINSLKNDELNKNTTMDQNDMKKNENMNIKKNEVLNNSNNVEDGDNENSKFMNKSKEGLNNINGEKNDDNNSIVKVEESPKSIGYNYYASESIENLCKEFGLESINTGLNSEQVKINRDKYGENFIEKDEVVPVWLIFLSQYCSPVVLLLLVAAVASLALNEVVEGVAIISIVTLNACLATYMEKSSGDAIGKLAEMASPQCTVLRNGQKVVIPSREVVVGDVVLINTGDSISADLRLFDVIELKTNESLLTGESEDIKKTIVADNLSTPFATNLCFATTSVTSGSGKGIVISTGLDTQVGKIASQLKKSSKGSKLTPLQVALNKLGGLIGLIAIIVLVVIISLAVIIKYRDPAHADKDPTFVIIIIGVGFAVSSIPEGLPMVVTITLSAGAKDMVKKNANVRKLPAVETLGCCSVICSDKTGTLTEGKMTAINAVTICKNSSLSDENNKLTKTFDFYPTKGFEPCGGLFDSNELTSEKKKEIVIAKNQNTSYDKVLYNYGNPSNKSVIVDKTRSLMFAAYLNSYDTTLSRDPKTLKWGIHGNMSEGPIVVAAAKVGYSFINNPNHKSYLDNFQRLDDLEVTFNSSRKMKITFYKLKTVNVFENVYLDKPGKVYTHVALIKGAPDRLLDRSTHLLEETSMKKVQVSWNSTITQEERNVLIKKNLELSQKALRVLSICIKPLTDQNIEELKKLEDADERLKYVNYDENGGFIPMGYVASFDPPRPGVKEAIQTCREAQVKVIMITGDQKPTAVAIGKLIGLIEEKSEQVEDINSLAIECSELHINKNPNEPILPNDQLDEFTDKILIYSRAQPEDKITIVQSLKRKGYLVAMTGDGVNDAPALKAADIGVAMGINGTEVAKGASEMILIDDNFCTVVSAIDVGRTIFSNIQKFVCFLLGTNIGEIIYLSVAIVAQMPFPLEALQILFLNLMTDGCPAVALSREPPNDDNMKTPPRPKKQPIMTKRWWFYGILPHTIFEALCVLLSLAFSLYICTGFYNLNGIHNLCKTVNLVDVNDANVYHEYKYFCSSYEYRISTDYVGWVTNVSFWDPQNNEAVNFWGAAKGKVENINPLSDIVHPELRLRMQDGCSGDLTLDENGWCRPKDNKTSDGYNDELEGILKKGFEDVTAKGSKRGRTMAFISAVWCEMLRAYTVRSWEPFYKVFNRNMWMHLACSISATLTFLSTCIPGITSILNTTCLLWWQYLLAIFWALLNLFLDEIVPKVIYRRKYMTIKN
Source text: The ability of compounds of the invention to function as inhibitors of the Na+/H+-ATPase, which regulates parasite cytosolic sodium concentration has been tested in the following assay. Their effect on cytosolic sodium can be measured using a sodium flux assay (Biochemical characterization and chemical inhibition of PfATP4-associated Na+-ATPase activity in Plasmodium falciparum membranes. Rosling J. E. O. et al., 2018, J. Biol. Chem., 293: 13397). Saponin-isolated parasites at a density of 1.4-1.8×10^8 cells/mL, were suspended in bicarbonate-free RPMI1640 supplemented with 20 mM D-glucose, 0.2 mM hypoxanthine, 25 mM HEPES and 25 mg/L gentamycin sulfate (pH 7.10), then treated with sodium-binding benzofuran isophthalate acetoxymethyl ester ([…]) and Pluronic F-127 (0.01% w/v) for 20 min at 37° C. The dye-loaded cells were washed twice (12,000 g, 0.5 min) in bicarbonate-free RPMI then incubated for a further 20 min at 37° C. to allow for complete de-esterification of the dye before being resuspended at a final cell concentration of 1.5-2.5×10^7 cells/mL in standard saline. […] [Na+] was determined according to reference to a calibration curve of the 340/380 nm fluorescence ratio as described previously (In situ calibration and [H+] sensitivity of the fluorescent Na+ indicator SBFI. Diarra A. et al., 2001, Am. J. Physiol. Cell Physiol., 280: 1623).

[4] = system: Plasmodium falciparum (3D7); experiment: In-vitro potency against P. falciparum (3D7 strain), SYBR Green growth inhibition; assay type: cell-based; details: P. falciparum 3D7, asexual intraerythrocytic stage, SYBR Green fluorescence
Description: Cultures of the widely-used malaria reference strain of chloroquine-sensitive Plasmodium falciparum (3D7) were maintained in a 1.25% suspension of human red blood cells cultured in RPMI 1640 medium (pH 7.3) supplemented with 0.5% Albumax II (Gibco Life Technologies, San Diego, CA), 12 mM sodium bicarbonate, 0.2 mM hypoxanthine, and 20 mg/L gentamicin at 37° C., in an atmosphere of 1% O2, 3% CO2 with a balance of nitrogen (Human malaria parasites in continuous culture. Trager W et al., 1976, Science, 193: 673-675). Growth inhibition was quantified using a fluorescence assay utilising the binding of SYBR Green (Novel, rapid, and inexpensive cell-based quantification of antimalarial drug efficacy. Bennett T. N. et al., 2004, Antimicrob. Agents Chemother., 48: 1807-1810) to double stranded DNA, which emits a fluorescent signal at 528 nm after excitation at 485 nm. Mefloquine was used as a drug control to monitor the quality of the assay (Z′=0.6 to 0.8, where Z′ is a measure of the discrimination between the positive and negative controls on a screen plate). Hits were confirmed by full-potency curves with dose-response curves determined from a minimum of 3 independent experiments. Compound bioactivity was expressed as EC50, the effective concentration of compound causing 50% parasite death. All data were processed using IDBS ActivityBase. Raw data was converted into percent inhibition through linear regression by setting the high inhibition control as 100% and the no inhibition control as 0%. Quality control criteria for passing plates were as follows: z′>0.5, S:B>3, % CV(no inhibition control)<15. The formula used to calculate z′ is
Curve fitting was carried out using the following 4 parametric equation:
where A=% inhibition at bottom, B=% inhibition at top, C=EC50, D=slope, x=inhibitor concentration and y=% inhibition. If curve definition was poor, B was fixed to 100.

[5] = system: malaria infection; details: human volunteers, single dose of 600 milligrams; cited from earlier work
[6] = phase 1a clinical trials; cited from earlier work

Row | Structure (SMILES) | pIC50 [1] | clearance ([2]; IV at 1 mg/kg) [mL/min/kg] | half-life ([2]; IV at 1 mg/kg) [h] | Effect on cytosolic [Na+] [3] | pEC50 [4] | Parasitological cure [5] | Metabolite formation in human pharmacokinetic studies [6] | clearance ([2]; IV at dose 3 mg/kg) [mL/min/kg] | half-life ([2]; IV at dose 3 mg/kg) [h]
1 | N#Cc1cc(NC(=O)[C@H]2c3ccccc3C(=O)N(CC(F)(F)F)[C@@H]2c2ccc(OC3CC3)nc2)ccc1F (single isomer, unassigned) [(1a)] | 6.49 | 0.26 | 41 | increase of cytosolic sodium concentration | 7.72 |  |  |  | 
2 | N#Cc1cc(NC(=O)[C@H]2c3ccccc3C(=O)N(CC(F)(F)F)[C@@H]2c2cnc(C(F)(F)F)nc2)ccc1F [(9a), (3S,4S)—N-(3-cyano-4-fluorophenyl)-1-oxo-2-(2,2,2-trifluoroethyl)-3-(2-(trifluoromethyl)pyrimidin-5-yl)-1,2,3,4-tetrahydroisoquinoline-4-carboxamide] |  |  |  | increase of cytosolic sodium concentration | 6.99 |  |  |  | 
3 | N#Cc1cc(NC(=O)[C@H]2c3ccccc3C(=O)N(CC(F)(F)F)[C@@H]2c2cccnc2)ccc1F [(+) SJ-733, 4-Isoquinolinecarboxamide, N-(3-cyano-4-fluorophenyl)-1,2,3,4-tetrahydro-1-oxo-3-(3-pyridinyl)-2-(2,2,2-trifluoroethyl)-, (3S,4S)-, reference compound] |  |  |  |  | 6.84 | parasitological cure was not achieved | significant formation of an inactive N-oxide metabolite | 3 | 10
